# “Also recorded” adds a separate entry of the source. Read-outs that look alike come from different tables or passages of the source.
# T1: pkLAP (microsomal LAP from porcine kidney) (Sus scrofa, UniProt P15145)
# T1 construct: purchased Sigma; host or cells: porcine kidney
# T1 sequence (P15145 1-963): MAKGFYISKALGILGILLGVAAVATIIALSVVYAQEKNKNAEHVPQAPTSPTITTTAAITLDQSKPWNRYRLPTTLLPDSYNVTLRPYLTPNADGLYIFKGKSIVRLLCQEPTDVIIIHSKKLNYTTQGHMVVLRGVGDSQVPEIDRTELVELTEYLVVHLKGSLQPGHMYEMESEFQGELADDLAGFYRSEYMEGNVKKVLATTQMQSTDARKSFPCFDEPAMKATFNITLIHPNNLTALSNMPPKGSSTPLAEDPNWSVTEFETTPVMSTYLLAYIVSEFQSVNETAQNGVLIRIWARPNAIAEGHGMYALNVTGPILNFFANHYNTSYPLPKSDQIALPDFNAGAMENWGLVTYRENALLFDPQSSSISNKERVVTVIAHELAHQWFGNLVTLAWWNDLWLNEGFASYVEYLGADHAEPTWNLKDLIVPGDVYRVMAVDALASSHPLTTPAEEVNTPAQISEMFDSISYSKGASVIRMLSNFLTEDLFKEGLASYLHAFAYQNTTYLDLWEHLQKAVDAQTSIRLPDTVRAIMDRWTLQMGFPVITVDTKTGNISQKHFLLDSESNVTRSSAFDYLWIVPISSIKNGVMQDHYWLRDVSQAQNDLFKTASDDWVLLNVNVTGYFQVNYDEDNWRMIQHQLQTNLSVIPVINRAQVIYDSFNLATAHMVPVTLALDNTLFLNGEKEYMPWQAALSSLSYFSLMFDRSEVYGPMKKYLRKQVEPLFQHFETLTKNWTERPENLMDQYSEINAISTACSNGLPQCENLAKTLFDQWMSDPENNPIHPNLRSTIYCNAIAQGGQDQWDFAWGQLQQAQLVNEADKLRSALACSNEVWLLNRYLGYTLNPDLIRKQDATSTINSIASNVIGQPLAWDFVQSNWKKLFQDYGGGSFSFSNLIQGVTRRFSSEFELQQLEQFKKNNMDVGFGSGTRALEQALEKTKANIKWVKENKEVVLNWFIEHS
# B1: fuLAP1: A. fumigatus leucine aminopeptidase, 388 amino acid residues (SEQ ID NO: 12) (protein, listed as Aspergillus fumigatus)
# chain: MKVLTAIALSAIAFTGAVAAVITQEAFLNNPRIHHDQEKYLIELAPYRTRWVTEEEKWALKLDGVNFIDITEEHNTGFYPTLHSASYVKYPPKMQYAEEVAALNKNLSKENMKANLERFTSFHTRYYKSQTGIRSATWLFDQVQRVVSESGAAEYGATVERFSHPWGQFSIIARIPGRTNKTVVLGAHQDSINLFLPSILAAPGADDDGSGTVTILEALRGLLQSDAIAKGNASNTVEFHWYSAEEGGMLGSQAIFSNYKRNRREIKAMLQQDMTGYVQGALNAGVEEAIGIMVDYVDQGLTQFLKDVVTAYCSVGYLETKCGYACSDHTSASKYGYPAAMATEAEMENTNKKIHTTDDKIKYLSFDHMLEHAKLSLGFAFELAFAPF
# B2: Cytosolic porcine kidney aminopeptidase: cytosolic leucine aminopeptidase from porcine kidney, Sigma (protein, UniProt P28839 1-519, looked up)
# Cytosol aminopeptidase: MFLLPLPAAARVAVRQLSVRRFWGPGPDAANMTKGLVLGIYSKEKEDDAPQFTSAGENFDKLVSGKLREILNISGPPLKAGKTRTFYGLHEDFSSVVVVGLGKKGAGVDDQENWHEGKENIRAAVAAGCRQIQDLEIPSVEVDPCGDAQAAAEGAVLGLYEYDELKQKKKVVVSAKLHGSGDQEAWQRGVLFASGQNLARHLMETPANEMTPTRFAEVIEKNLKSASSKTDVHIRPKSWIEEQEMGSFLSVAKGSEEPPVFLEIHYKGSPDASDPPLVFVGKGITFDSGGISIKASANMDLMRADMGGAATICSTIVSAAKLDLPINLVGLAPLCENMPSGKANKPGDVVRAKNGKTIQVDNTDAEGRLILADALCYAHTFNPKVIINAATLTGAMDIALGSGATGVFTNSSWLWNKLFEASIETGDRVWRMPLFEHYTKQIVDCQLADVNNIGKYRSAGACTAAAFLKEFVTHPKWAHLDIAGVMTNKDEVPYLRKGMAGRPTRTLIEFLLRFSQDSA
# Legend:
# [1] = tested on: fuLAP2; format: biochemical, Aspergillus fumigatus; details: for fuLAP2 hydrolytic activity, percentage of control without any cation / fuLAP2 hydrolytic activity, percentage of control without inhibitor: Leu-MCA substrate; for fuLAP2 hydrolytic activity, percentage of control without inhibitor: inhibitor 20 μM
# Procedure: (§1) Inhibitors and metallic cations were pre-incubated with the enzymes for 15 min at 37° C. Then, Leu-AMC at a 5 mM final concentration was added. After further incubation for 60 min, enzyme activity was measured as described above. The inhibitors and their concentrations tested purified LAPs were: 500 μM amastatin (Bachem), 40 μM benzamidine (Sigma), 500 μM bestatin (Bachem), 5 mM/l mM EDTA (Sigma). 100 μM E-64 (L-trans-epoxysuccinyl-leu-4-guanidinobutylamide) (Bachem), 100 μM leupeptin (Sigma), 5 mM/1 mM ortho-phenanthroline (Sigma), 500 μM p-chloromercuribenzoic acid (Sigma), 100 μM pepstatin A (Sigma), 40 μM PMSF (Sigma), 20 μM TLCK (Roche Diagnostics), and 20 μM TPCK (Roche Diagnostics).
# [2] = target: T1, pkLAP (microsomal LAP from porcine kidney); assay: Effect of chemical reagents (inhibitors, metallic cations) on LAP activity with Leu-AMC; format: biochemical; details: Leu-MCA substrate; for pkLAP hydrolytic activity, percentage of control without inhibitor: inhibitor 20 μM
# Procedure: as §1
# [3] = tested on: all the LAPs tested (ruLAP1, ruLAP2, fuLAP1, fuLAP2, pkLAP); format: biochemical; details: for effect of inhibitor on all the LAPs tested: Leu-AMC 5 mM, amastatin 500 μM, ortho-phenantroline 1 and 5 mM, others as
# Procedure: as §1
# [4] = target: fuLAP1 (Aspergillus fumigatus, UniProt Q5VJG6); format: biochemical; details: Leu-MCA substrate; for fuLAP1 hydrolytic activity, percentage of control without inhibitor: inhibitor 20 μM
# Procedure: as §1
# [5] = target: ruLAP1 (Trichophyton rubrum, UniProt Q5QHG5); format: biochemical; details: Leu-MCA substrate; for ruLAP1 hydrolytic activity, percentage of control without inhibitor: inhibitor 20 μM
# ruLAP1, sequence (Q5QHG5 19-373): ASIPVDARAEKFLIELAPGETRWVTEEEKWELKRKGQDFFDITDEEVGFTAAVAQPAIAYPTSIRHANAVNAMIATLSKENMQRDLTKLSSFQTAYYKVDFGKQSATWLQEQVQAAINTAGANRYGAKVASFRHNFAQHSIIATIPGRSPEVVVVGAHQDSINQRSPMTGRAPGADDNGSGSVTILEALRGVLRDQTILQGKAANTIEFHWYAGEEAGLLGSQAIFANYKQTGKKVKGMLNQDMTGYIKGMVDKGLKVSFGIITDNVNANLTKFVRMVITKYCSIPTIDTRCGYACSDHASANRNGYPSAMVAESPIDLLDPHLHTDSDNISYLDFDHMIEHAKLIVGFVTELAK
# Procedure: as §1
# [6] = target: ruLAP2 (Trichophyton rubrum, UniProt Q5QHG6); format: biochemical; details: for ruLAP2 hydrolytic activity, percentage of control without any cation / ruLAP2 hydrolytic activity, percentage of control without inhibitor: Leu-MCA substrate; for ruLAP2 hydrolytic activity, percentage of control without inhibitor: inhibitor 20 μM
# ruLAP2, sequence (Q5QHG6 22-495): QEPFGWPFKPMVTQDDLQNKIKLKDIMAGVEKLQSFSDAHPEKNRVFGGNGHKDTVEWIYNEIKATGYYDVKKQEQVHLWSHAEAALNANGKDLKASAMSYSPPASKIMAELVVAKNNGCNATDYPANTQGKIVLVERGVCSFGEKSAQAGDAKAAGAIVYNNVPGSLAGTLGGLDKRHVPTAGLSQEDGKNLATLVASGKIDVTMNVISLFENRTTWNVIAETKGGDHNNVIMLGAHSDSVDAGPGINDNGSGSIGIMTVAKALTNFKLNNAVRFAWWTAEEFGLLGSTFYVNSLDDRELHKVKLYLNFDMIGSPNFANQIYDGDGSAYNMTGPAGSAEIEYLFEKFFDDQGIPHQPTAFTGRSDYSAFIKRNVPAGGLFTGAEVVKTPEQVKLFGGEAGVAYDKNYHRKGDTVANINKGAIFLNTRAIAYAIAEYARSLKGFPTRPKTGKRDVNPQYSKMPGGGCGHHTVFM
# Procedure: as §1
# [7] = tested on: gliadin 33 mer; assay: Digestion of gliadin 33 mer (RP-HPLC, ESI-MS); format: biochemical, wheat
# [8] = Aminopeptidase activity assay with fluorogenic aminoacyl-AMC substrates; format: biochemical
# Procedure: (§2) Aminopeptidase activity was determined using different fluorogenic aminoacyl-4-methylcoumaryl-7-amide derivatives of peptides and the internally quenched fluorogenic substrate Lys(Abz)-Pro-Pro-pNA for specific determination of aminopeptidase P activity. Stockel et al, Adv Exp. Med. Biol. 421:31-35 (1997). All substrates were from Bachem (Bubendorf, Switzerland). Substrate stock solutions were prepared at 0.1 M according to the recommendations of the manufacturer and stored at −20° C. The reaction mixture contained a concentration of 5 mM substrate and enzyme preparation (between 56 and 2,662 ng per assay depending on the cleavage activity of each enzyme for the substrates) in 25 μl of 50 mM Tris-HCl buffer adjusted at the optimal pH for each LAP (between 7 and 8). After incubation at 37° C. for 60 min, the reaction was terminated by adding 5 μl of glacial acetic acid and the reaction mixture was diluted with 3.5 ml of water. The released 7-amino-4-methylcoumarin (AMC) was measured using a spectrofluorophotometer (Perkin Elmer LS-5 fluorometer, Zurich, Switzerland) at an excitation wavelength of 370 nm and an emission wavelength of 460 nm. A standard curve made with synthetic AMC was used to assess the released AMC. The released diprolyl-p-nitroanilide was measured at an excitation wavelength of 310 nm and an emission wavelength of 410 nm. The LA activities were expressed in mnoles of released AMC or pNA/min/μg protein.
# Table 15 details the hydrolytic activity of different LAPs toward various aminoacyl-MCA comparison (%) to Leu-MCA used as a standard.
# [9] = Aminopeptidase P activity assay; format: biochemical; details: substrate Lys(Abz)-Pro-Pro-pNA, 5 mM, 37° C., 60 min
# Procedure: as §2
molecule,measurement,setting,value
"[Cl-].[Cl-].[Co+2] [Co^++, CoCl2]",effect of divalent cation on fuLAP2 activity,[1]; Leu-AMC substrate,highly activated
same,"fuLAP2 hydrolytic activity, percentage of control without any cation",[1]; cation salt 0.5 mM,378.0%
same,"fuLAP2 hydrolytic activity, percentage of control without any cation",[1]; cation salt 1 mM,662.7%
same,"pkLAP hydrolytic activity, percentage of control without any cation",[2]; cation salt 0.5 mM,876.1%
same,"pkLAP hydrolytic activity, percentage of control without any cation",[2]; cation salt 1 mM,899.8%
same,increase of the activity of the LAPs,"[3]; concentration up to 1 mM, with the exception of fuLAP1",200% to 900%
same,"fuLAP1 hydrolytic activity, percentage of control without any cation",[4]; cation salt 0.5 mM,104.3%
same,"fuLAP1 hydrolytic activity, percentage of control without any cation",[4]; cation salt 1 mM,96.5%
same,"ruLAP1 hydrolytic activity, percentage of control without any cation",[5]; cation salt 0.5 mM,210.2%
same,"ruLAP1 hydrolytic activity, percentage of control without any cation",[5]; cation salt 1 mM,202.1%
same,effect of divalent cation on ruLAP2 activity,[6]; Leu-AMC substrate,highly activated
same,"ruLAP2 hydrolytic activity, percentage of control without any cation",[6]; cation salt 0.5 mM,591.2%
same,"ruLAP2 hydrolytic activity, percentage of control without any cation",[6]; cation salt 1 mM,789.7%
Cc1ccc(S(=O)(=O)N[C@@H](CCCCN)C(=O)CCl)cc1 [TLCK],"fuLAP2 hydrolytic activity, percentage of control without inhibitor",[1],120%
same,"pkLAP hydrolytic activity, percentage of control without inhibitor",[2],113%
same,effect of inhibitor on all the LAPs tested,[3],no clear inhibitory effects
same,"fuLAP1 hydrolytic activity, percentage of control without inhibitor",[4],80%
same,"ruLAP1 hydrolytic activity, percentage of control without inhibitor",[5],68%
same,"ruLAP2 hydrolytic activity, percentage of control without inhibitor",[6],96%
Cc1ccc(S(=O)(=O)N[C@@H](Cc2ccccc2)C(=O)CCl)cc1 [TPCK],"fuLAP2 hydrolytic activity, percentage of control without inhibitor",[1],87%
same,"pkLAP hydrolytic activity, percentage of control without inhibitor",[2],108%
same,effect of inhibitor on all the LAPs tested,[3],no clear inhibitory effects
same,"fuLAP1 hydrolytic activity, percentage of control without inhibitor",[4],95%
same,"ruLAP1 hydrolytic activity, percentage of control without inhibitor",[5],68%
same,"ruLAP2 hydrolytic activity, percentage of control without inhibitor",[6],79%
Chymotrypsin [reference compound],digestion of the peptide with other enzymes,"[7]; 20 h, combinations with both enzymes at E/S (w:w) 1:50",not able to breakdown the peptide
B1,hydrolysis of Leu-AMC,[8],efficiently hydrolyzed
same,preference for aminoacyl-AMC substrates compared to Leu-AMC,[8]; Leu-AMC used as a reference,"appreciated Arg-, Val-, and Phe-AMC; also recorded: common preference for Leu-AMC as a substrate"
same,hydrolytic activity toward Ala-AMC in comparison (%) to Leu-MCA,"[8]; substrate Ala-AMC, 5 mM, 37° C., 60 min",4.7%
same,hydrolytic activity toward Arg-AMC in comparison (%) to Leu-MCA,"[8]; substrate Arg-AMC, 5 mM, 37° C., 60 min",53.9%
same,hydrolytic activity toward Asn-AMC in comparison (%) to Leu-MCA,"[8]; substrate Asn-AMC, 5 mM, 37° C., 60 min",29.4%
same,hydrolytic activity toward Asp-AMC in comparison (%) to Leu-MCA,"[8]; substrate Asp-AMC, 5 mM, 37° C., 60 min",0.8%
same,hydrolytic activity toward Cys-AMC in comparison (%) to Leu-MCA,"[8]; substrate Cys-AMC, 5 mM, 37° C., 60 min",5.0%
same,hydrolytic activity toward Gln-AMC in comparison (%) to Leu-MCA,"[8]; substrate Gln-AMC, 5 mM, 37° C., 60 min",44.9%
same,hydrolytic activity toward Glu-AMC in comparison (%) to Leu-MCA,"[8]; substrate Glu-AMC, 5 mM, 37° C., 60 min",0.0%
same,hydrolytic activity toward Gly-AMC in comparison (%) to Leu-MCA,"[8]; substrate Gly-AMC, 5 mM, 37° C., 60 min",0.8%
same,hydrolytic activity toward Gly-Pro-AMC in comparison (%) to Leu-MCA,"[8]; substrate Gly-Pro-AMC, 5 mM, 37° C., 60 min",5.4%
same,hydrolytic activity toward His-AMC in comparison (%) to Leu-MCA,"[8]; substrate His-AMC, 5 mM, 37° C., 60 min",0.8%
same,hydrolytic activity toward Hyp-AMC in comparison (%) to Leu-MCA,"[8]; substrate Hyp-AMC, 5 mM, 37° C., 60 min",3.9%
same,hydrolytic activity toward Ile-AMC in comparison (%) to Leu-MCA,"[8]; substrate Ile-AMC, 5 mM, 37° C., 60 min",13.2%
same,hydrolytic activity toward Leu-AMC in comparison (%) to Leu-MCA used as a standard,"[8]; substrate Leu-AMC (standard), 5 mM, 37° C., 60 min",100.0%
same,hydrolytic activity toward Lys-AMC in comparison (%) to Leu-MCA,"[8]; substrate Lys-AMC, 5 mM, 37° C., 60 min",7.7%
same,hydrolytic activity toward Met-AMC in comparison (%) to Leu-MCA,"[8]; substrate Met-AMC, 5 mM, 37° C., 60 min",116.9%
same,hydrolytic activity toward Phe-AMC in comparison (%) to Leu-MCA,"[8]; substrate Phe-AMC, 5 mM, 37° C., 60 min",163.7%
same,hydrolytic activity toward Pro-AMC in comparison (%) to Leu-MCA,"[8]; substrate Pro-AMC, 5 mM, 37° C., 60 min",12.0%
same,hydrolytic activity toward Pyr-AMC in comparison (%) to Leu-MCA,"[8]; substrate Pyr-AMC, 5 mM, 37° C., 60 min",0.0%
same,hydrolytic activity toward Ser-AMC in comparison (%) to Leu-MCA,"[8]; substrate Ser-AMC, 5 mM, 37° C., 60 min",10.3%
same,hydrolytic activity toward Thr-AMC in comparison (%) to Leu-MCA,"[8]; substrate Thr-AMC, 5 mM, 37° C., 60 min",5.1%
same,hydrolytic activity toward Val-AMC in comparison (%) to Leu-MCA,"[8]; substrate Val-AMC, 5 mM, 37° C., 60 min",27.6%
same,hydrolytic activity toward Lys(Abz) Pro-PropNA in comparison (%) to Leu-MCA,[9],0.0%
B2,digestion of the 33 mer,"[7]; 37° C., 1 mM CoCl2, pH7.2",totally inactive
